Test results published in PMC2893943 (Nanoscale Research Letters, 2010).

What was measured:
[1] = test system: LPS-induced inflammation model in rats; assay type: in vivo, Sprague–Dawley rats; conditions: for ED50 based on neutrophil infiltration and cytokine production data: IT instillation of nanosuspension; for ED50 based on neutrophil infiltration and cytokine production data / EDmax / dose of maximum effect (EDmax): rat LPS model; for ED50 in the LPS assay: IT nanosuspension prior to LPS challenge, inhibition of neutrophil infiltration or TNFα production in BALF; for EDmax / dose of maximum effect (EDmax): IT nanosuspension
adrenal [2] = assay: six-day repeat dose side effect study: adrenal involution; assay type: in vivo, Sprague–Dawley rats; conditions: at the ED50 dose (30 μg fluticasone, 100 μg ciclesonide), IT once daily, 6 days
thymus [3] = assay: six-day repeat dose side effect study: thymus involution; assay type: in vivo, Sprague–Dawley rats; conditions: at the ED50 dose, IT once daily, 6 days
[4] = particle size distribution before and after wet milling; assay type: physicochemical; conditions: for particle size D50 of the bulk material: before micronization; for particle size D50 after micronization: nanosuspension, wet milling
[5] = test system: antigen-induced airway inflammation (eosinophils in BALF); conditions: cited from earlier work; for ED50, antigen-induced influx of eosinophils in airway BALF and lung tissue: IT-administered; for ED50 for the inhibition of eosinophil infiltration into BALF: as quoted with the 7-day side effect study
adrenal [6] = conditions: 7-day study, cited from earlier work
thymus [7] = conditions: 7-day study, cited from earlier work
bone growth = conditions: 7-day study; cited from earlier work
[8] = test system: plasma corticosterone (HPA axis suppression); conditions: fluticasone 0.1 mg/kg; ciclesonide 0.01 to 0.1 mg/kg/day; 28-day; cited from earlier work
[9] = cited from earlier work
[10] = six-day repeat dose side effect study: plasma drug exposure by LC/MS/MS; assay type: in vivo, Sprague–Dawley rats; conditions: 2 h post the last dose
[11] = test system: plasma corticosterone (HPA axis suppression); assay: six-day repeat dose side effect study: plasma corticosterone level; assay type: in vivo, Sprague–Dawley rats; conditions: ED50 doses, 30 μg fluticasone, 2 h following the last dose
[12] = background statement, no reference given; cited from earlier work
[13] = IT administration, on the basis of dose

| Structure (SMILES) | ED50 based on neutrophil infiltration and cytokine production data [1] [mg] | ED50 in the LPS assay [1] [µg] | EDmax [1] [mg] | dose of maximum effect (EDmax) [1] [µg] | average adrenal involution (adrenal [2]) [%] | average thymus involution (thymus [3]) [%] | particle size D50 of the bulk material [4] [μm] | particle size D50 after micronization [4] [μm] | ED50, antigen-induced influx of eosinophils in airway BALF and lung tissue [5] [mg/kg] | ED50 for the inhibition of eosinophil infiltration into BALF [5] [mg/kg] | effect on plasma corticosterone levels [8] | plasma protein binding [9] [%] | also measured |
| --- | --- | --- | --- | --- | --- | --- | --- | --- | --- | --- | --- | --- | --- |
| CC(C)C(=O)OCC(=O)[C@@]12O[C@H](C3CCCCC3)O[C@@H]1C[C@H]1[C@@H]3CCC4=CC(=O)C=C[C@]4(C)[C@H]3[C@@H](O)C[C@@]12C [ciclesonide] | 0.1 | 100 | 0.3 | 300 | 7.6 ± 5.3 | 41.0 ± 4.3 | 56 | 0.22 | 0.49 | 0.75 | did not change corticosterone levels | > 99 | fold less potent than fluticasone (ratio of ED50) ([1]; 100 μg/30 μg): threefold; fold less potent than fluticasone in terms of ED50 ([5]; antigen-induced airway eosinophilia and Sephadex-induced lung edema): 7–9; ED50, inhibition of accumulation of eosinophils in BALF ([5]; separate study, same preclinical model): 0.5 mg/kg; fold less potent than fluticasone at inducing adrenal involution (adrenal [6]): 44; fold less potent than fluticasone at inducing thymus involution (thymus [7]): sixfold; fold less potent than fluticasone at decreasing bone growth (bone growth): 22 |
| C[C@]12C=CC(=O)C=C1CC[C@@H]1[C@@H]2[C@@H](O)C[C@@]2(C)[C@H]1C[C@H]1O[C@@H](C3CCCCC3)O[C@]12C(=O)CO [des-CIC, desisobutyryl-ciclesonide] | – | – | – | – | – | – | – | – | – | – | – | > 99 | ratio of systemic exposure, des-CIC versus fluticasone at ED50 doses [10]: greater than sixfold |
| CCC(=O)O[C@]1(C(=O)SCF)[C@H](C)C[C@H]2[C@@H]3C[C@H](F)C4=CC(=O)C=C[C@]4(C)[C@@]3(F)[C@@H](O)C[C@@]21C [fluticasone, fluticasone propionate] | 0.03 | 30 | 0.1 | 100 | 16.6 ± 5.1 | 59.5 ± 5.8 | 35 | 0.24 | 0.068 | 0.095 | significantly suppressed | 90 | fold lower level of plasma corticosterone than 100 μg ciclesonide [11]: approximately 10; fold more potent at inducing adrenal involution compared to ciclesonide (adrenal [6]; [13]): approximately 44; fold more potent at inducing thymus involution compared to ciclesonide (thymus [7]; [13]): sixfold; bioavailability [12]: < 1%; clearance [12]: ~ liver blood flow |
